Data on one compound can be found in BindingDB's records for PubMed 10454469 (Universidad De Sevilla, 1999).

This assay has as its target Gamma-aminobutyric acid receptor subunit alpha-1 (Rattus norvegicus, UniProt P62813).

Where “and” joins values, the source holds several entries; their conditions need not be identical. Equal values may be shown once.

Chain of Gamma-aminobutyric acid receptor subunit alpha-1 (P62813 whole entry): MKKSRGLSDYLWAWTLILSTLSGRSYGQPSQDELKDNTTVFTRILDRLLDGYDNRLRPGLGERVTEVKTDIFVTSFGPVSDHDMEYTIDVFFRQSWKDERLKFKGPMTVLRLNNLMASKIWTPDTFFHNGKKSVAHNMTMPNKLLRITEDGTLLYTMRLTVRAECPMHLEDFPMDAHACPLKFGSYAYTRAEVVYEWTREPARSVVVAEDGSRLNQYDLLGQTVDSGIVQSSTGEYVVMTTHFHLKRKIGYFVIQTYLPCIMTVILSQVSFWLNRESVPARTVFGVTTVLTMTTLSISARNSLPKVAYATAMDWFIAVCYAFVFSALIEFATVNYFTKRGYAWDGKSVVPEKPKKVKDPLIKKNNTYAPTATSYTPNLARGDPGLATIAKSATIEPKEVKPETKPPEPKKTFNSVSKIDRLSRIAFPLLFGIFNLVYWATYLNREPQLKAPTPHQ

The Ki is the dissociation constant of the complex between target and ligand, obtained from inhibition or displacement. For the compound `Cc1nnc2ccc(-c3cccc(C(F)(F)F)c3)nn12`, the Ki is 700 pM and 810 pM.
